Test results from patent US12419890B2, “Administration of sumo-activating enzyme inhibitor and checkpoint inhibitors” (Takeda Pharmaceutical Company Limited, priority 2019, dated 2025).

Test system: WEHI-3 syngeneic mouse myelomonocytic leukemia-derived subcutaneous tumor
Assay: WEHI-3 Study 5: mouse WEHI-3 syngeneic tumor model, individual tumor volume
Type: in vivo
Conditions: Compound I-263a 7.5 mg/kg IV BIW till Day 14
Method: WEHI-3 Study 5: WEHI-3 is a mouse myelomonocytic leukemia cell line. WEHI-3 mouse syngeneic tumor model was generated by subcutaneous inoculation with 0.1×10^6 WEHI-3 cells (cell suspension) in 9 weeks old female BALB/c mice (SINO-British SIPPR/BK Lab Animal Ltd. Shanghai, China) in the flank. When the mean tumor volume reached approximately 30 mm^3, the animals were randomized into one vehicle control and five treatment groups (n=8/group). Mice were then dosed with 20% HPbCD or Compound I-263a or anti-mouse PD-1 antibody or anti-mouse CTLA-4 antibody over a 21-day period. Tumor growth and body weight were measured twice per week during the treatment and post-treatment periods, and mice were humanely euthanized once they had reached their humane endpoint.
Study 5: A 0.75 mg/mL stock solution of Compound I-263a was formulated weekly in 20% HPβCD and administered intravenously (IV) based on exact animal body weight on each day of treatment, using a dosing volume of 10 mL/kg body weight. Final doses received were 7.5 mg/kg. Dosing volume for Compound I-263a was 0.2 mL. Anti-mouse PD1 antibody (anti-mPD-1) (Bio X Cell, 10 Technology Drive, Suite 2B, West Lebanon, NH 03784) was formulated prior to each injection at 2.0 mg/mL in Phosphate-buffered saline (PBS) and administered intraperitoneally (IP) based on exact body weight on each day of treatment, using a dosing volume of 5 mL/kg resulting in a 10 mg/kg dose. Dosing volume for anti-mPD-1 was 0.1 mL. Anti-mouse CTLA-4 antibody (anti-mCTLA-4) (Bio X Cell, 10 Technology Drive, Suite 2B, West Lebanon, NH 03784) was formulated prior to each injection at 2.0 mg/mL in Phosphate-buffered saline (PBS) and administered intraperitoneally (IP) based on exact body weight on each day of treatment, using a dosing volume of 5 mL/kg resulting in a 10 mg/kg dose. […]
Tumors were measured twice weekly using vernier calipers. Tumor volumes were calculated using standard equation: V=W^2×L/2, where V=volume, W=width, and L=length for the tumor. […] Tumor size and body weight were measured twice a week for the duration of the study. […]

With `Cc1sc(C(=O)c2cncnc2N[C@@H]2C[C@H](COS(N)(=O)=O)[C@@H](O)C2)cc1[C@@H]1NCCc2ccc(Cl)cc21` [Compound I-263a, [(1R,2S,4R)-4-{[5-({4-[(1R)-7-chloro-1,2,3,4-tetrahydroisoquinolin-1-yl]-5-methyl-2-thienyl}carbonyl)pyrimidin-4-yl]amino}-2-hydroxycyclopentyl]methyl sulfamate] the “tumor growth inhibition / antitumor activity relative to vehicle” value (anti-mPD-1 10 mg/kg IP BIW till Day 10, anti-mCTLA-4 10 mg/kg IP Q4D till Day 8, 8 tumors/group) was “modest inhibition”, the tumor growth delays (delay to 11-14 days) was “one” and the “tumors with slight tumor growth delay” value (delays to 7-11 days, of the 8 implanted tumors) was 6.
